Data set [1] has as its system HEVp6 replicon (Kernow-C1 p6, gt3). The data set can be described thus: HEVp6 subgenomic replicon. The note with it: for IC90: read-out: IC90 (CI). A general note: In antiviral work, replicon cells carry a viral genome segment that copies itself.
In data set [2] the test system is HCV JFH1 subgenomic replicon. The data set can be described thus: HCV JFH1 subgenomic replicon replication in Huh7.5. The following applies: for IC50 / IC90: Hepatitis C virus; for IC50: read-out: IC50 (CI); for IC90: read-out: IC90 (CI).
A further data set has as its system full-length HEV p6 clone. The data set can be described thus: Full-length p6 clone, ORF2 immunofluorescence in Huh7.5. Format: cell-based, Hepatitis E virus. The following applies: silvestrol 10 nM or RBV, 42 h, added 4 h after transfection.
In the next data set the test system is different HEV constructs. The data set can be described thus: Different HEV subgenomic replicons in Huh7.5. The note with it: Hepatitis E virus.
Data set [3] concerns HEV Sar55/S17 replicon (gt1). The data set can be described thus: HEV Sar55/S17 subgenomic replicon replication in Huh7.5.
For the next data set, the system named is Ebola virus. The note with it: read-out: IC50 Ebola virus replication; cited from earlier work.
Data set [4] concerns Huh7.5 cells. The data set can be described thus: Trypan blue exclusion viable cell counting. Format: cell-based, human. The following applies: silvestrol 10 nM and 100 nM, 24 h, vs untreated cells.
Data set [5] concerns hepatocyte-like cells (HLCs). The data set can be described thus: WST cell viability in hepatocyte-like cells. Format: cell-based, human. The note with it: 10 nM silvestrol for 24 h.
The test system of a further data set is HepG2/C3A cells. The data set can be described thus: MTT cell viability in HEVCC infection assay. The following applies: silvestrol 10, 20, 50 nM, all treatment setups. Format: cell-based, human.
The test system of another data set is gt1 HEV (strain Sar-55). Format: in vivo. The following applies: 0.3 mg/kg daily intraperitoneal, ten or six days, first days of treatment.
The test system of data set [6] is Huh7.5 cells. The data set can be described thus: MTT cell viability assay in transfected Huh7.5. Format: cell-based, human. Background: Formazan colour is commonly taken as a measure of viable cells.
Data set [7] in a line: MTT cell viability assay in transfected Huh7.5. Format: cell-based, human. The note with it: human, transfected Huh7.5 cells, CC50 (CI), 42 h treatment, Huh7.5, CI 95%.
For data set [8] the following is noted: 0.3 mg/kg daily intraperitoneal, monitored period.
The mark [9] stands for this setting: Hepatitis E virus, GT3, Huh7.5, 24 h, read-out: IC50 (CI), 24 h treatment, Huh7.5, CI 95%.
Setting [10] is: Hepatitis E virus, GT3, Huh7.5, 24 h.
[11] abbreviates: Hepatitis E virus, GT3, Huh7.5, 42 h, read-out: IC50 (CI), 42 h treatment, Huh7.5, CI 95%.
[12] abbreviates: Hepatitis E virus, GT3, Huh7.5, 42 h.
The mark [13] stands for this setting: Hepatitis E virus, GT1, Huh7.5, 24 h, read-out: IC50 (CI), 24 h treatment, Huh7.5, CI 95%.
Setting [14] is: Hepatitis E virus, GT1, Huh7.5, 42 h, read-out: IC50 (CI), 42 h treatment, Huh7.5, CI 95%.

Consider two molecules from article PMC7113770 (Antiviral Research, 2018).

Where two headings read alike, the source gives them in different places. Where only a bound is given, the exact number is not on record here.

As usually defined, the IC50 is the point on the concentration scale where inhibition reaches its midpoint. As usually defined, the IC90 is the concentration at which the effect reaches the 90% level. As for `NC(=O)c1ncn([C@@H]2O[C@H](CO)[C@@H](O)[C@H]2O)n1` [Ribavirin], the half-maximal inhibitory concentration (IC50) in [1] (setting [9]) is 8160 nM; in [1] (setting [11]), 6900 nM; in data set [2] (Huh7.5, 24 h), 12300 nM; in data set [2] (Huh7.5, 42 h), 62500 nM; in the data set on different HEV constructs (GT1, Huh7.5, 24 h, read-out: IC50 HEV replication), 8000 to 12000 nM; in data set [3] (setting [13]) it was 43000 nM. In addition, the IC50 is 30300 nM in data set [3] (setting [14]) and 43100 nM in [3] (read-out: IC50 (CI), 24 h treatment, Huh7.5, CI 95%). Further, the IC90 in [1] (setting [10]) was found to be 244000 nM; in [1] (setting [12]) it was 50400 nM; in data set [2] (Huh7.5, 24 h) it was 128000 nM. The “ORF2 positive cells (immunofluorescence)” value in the data set with full-length HEV p6 clone was “highly reduced”.

As usually defined, the CC50 is the concentration giving 50% cytotoxicity. `COC(=O)[C@H]1[C@@H](O)[C@@]2(O)c3c(OC)cc(O[C@@H]4O[C@@H]([C@H](O)CO)CO[C@H]4OC)cc3O[C@@]2(c2ccc(OC)cc2)[C@@H]1c1ccccc1` [Silvestrol, silvestrol]: in data set [1] (42 h, p6 strain, CC50/IC50), the selectivity index result is on record as “about 8.6”. For the same molecule, the IC50 in [1] (setting [9]) was 4.43 nM; in data set [1] (setting [11]), 2.9 nM; in data set [1] (read-out: IC50 (CI), 42 h treatment, Huh7.5, CI 95%) it was 2.87 nM; in data set [2] (Huh7.5, 24 h), 24.3 nM; in data set [2] (Huh7.5, 42 h), 71.1 nM; in the data set with different HEV constructs (Huh7.5, 24 h, read-out: IC50 for the different HEV constructs) it was 4 to 6.6 nM. For the same molecule, the IC50 in the data set with Ebola virus is less than 1 nM; in data set [3] (setting [13]) it was 6.65 nM; in data set [3] (setting [14]), 3.17 nM. Besides, the IC90 in data set [1] (setting [10]) was found to be 64.7 nM; in [1] (setting [12]) it was 27.3 nM; in data set [2] (Huh7.5, 24 h) it was 128 nM; in data set [2] (Huh7.5, 42 h), 518 nM; in data set [3] (Hepatitis E virus, GT1, Huh7.5, 42 h, read-out: IC90 (CI)), 52.8 nM. For the same molecule, the “susceptibility of HCV reference replicon compared with HEV” value in data set [2] (Huh7.5, 24 h) is “less susceptible”. In the data set on full-length HEV p6 clone, the “ORF2 positive cells (immunofluorescence)” value was “highly reduced”. Moreover, the “viable cells (trypan blue cell counting)” value with Huh7.5 cells [4] is recorded as “no significant reductions”. The “cytotoxicity (WST assay) in HLCs” value in data set [5] is listed as “without cytotoxicity”. Also, in the data set with HepG2/C3A cells, the “cell viability (MTT)” value is on record as “not reduced”. In addition, the “HEV RNA in the feces” value in the data set on gt1 HEV (strain Sar-55) is reported as “rapid decline”. The “cytotoxic concentration 50 (CC50)” value in the data set on Huh7.5 cells [6] (24 h treatment, Huh7.5) is recorded as “did not reach a cytotoxic concentration 50 (CC50)”. Further, the CC50 in the data set on Huh7.5 cells [6] (read-out: CC50 (CI), 42 h treatment, Huh7.5, CI 95%) is 24.8 nM. In data set [7], this molecule showed a CC50 at 42 h of 24.8 nM. Further, the body weight result in [8] is “No changes”.
